According to patent US8580843B2, “Use of diindolylmethane (DIM) compounds and derivatives as neuroprotective agents” (Colorado State University Research Foundation, priority 2008, dated 2013):

Experiments:
[1] = system: 3-nitrotyrosine protein nitration in astrocytes; test: Immunofluorescence of 3-nitrotyrosine adducts (protein nitration) in primary astrocytes treated with MPTP and cytokines; format: cell-based, mouse
Procedure: Immunofluorescence. Primary astrocytes were grown to confluence on 20 mm serum-coated glass coverslips and treated with saline or MPTP (10 μM), TNF-α (10 pg/ml), and IFN-γ (1 ng/ml) with or without DIM-C-pPhtBu (10 μM), rosiglitazone (10 μM), the NOS2 inhibitor AMT (25 nM) or NOS 1 inhibitor 7-NI (10 μM), or a DMSO vehicle control 8 hours prior to analysis. Immunofluorescence to confirm culture purity was conducted on cells grown to confluence on the 20 mm glass coverslips. Blocking and antibody hybridization was conducted in 1% BSA (w/v) in PBS, and all washes were conducted in PBS. Images were acquired using a Zeiss 20× air PlanApochromat objective and 6-8 microscopic fields were examined per treatment group over no less than three independent experiments. Fluorescent secondary antibodies were used to detect GFAP (488 nmcx/519 nmcm) and Iba1 or nitrosylated protein (647 nmcx/668 nmcm), respectively, while mounting medium containing DAPI (360 nmcx/460 nmcm) was used to identify cell nuclei.
The effect of NOS2 induction by MPTP and inflammatory cytokines on global protein nitration following NO/peroxynitrite (ONOO—) formation in astrocytes was examined by immunofluorescence (FIG. 3). Immunofluorescence using antibodies against GFAP (FITC) and 3-nitrotyrosine adducts (Cy5) was employed to measure the extent of protein nitration within astrocytes treated with MPTP and cytokines, with or without inclusion of DIM-C-pPhtBu (10 μM), rosiglitazone (10 μM), the high-affinity NOS2 inhibitor AMT (25 nM), the NOSI inhibitor 7-NI (10 μM) or a DMSO vehicle control. […] Co-treatment of astroytes with DIM-C-pPhtBu prevented MPTP-induced increases in nitration, resulting in similar levels of 3-nitrotyrosine adducts as saline-treated control cells (FIG. 3C). Mean intracellular fluorescence for 3-nitrotyrosine was quantified and compared between each treatment group (FIG. 3D).

[2] = system: 3-nitrotyrosine protein adducts in dopaminergic neurons of the substantia nigra; test: Protein nitration in dopaminergic neurons of mice treated with MPTP; format: in vivo, C57B1/6 mice; settings: 50 mg/Kg oral gavage in corn oil once per day for four days following MPTP; substantia nigra 7 days following MPTP
Procedure: C57B1/6 mice were treated with MPTP (2 injections of 15 mg/kg, 12 hours apart) in the presence and absence of DIM-C-pPhOCH3 (DIM5) and assessed for 3-nitrotyrosine protein adducts (a marker of nitrosative stress and excessive NO/peroxynitrite formation). DIM-C-pPhOCH3 was administered once per day for four days following MPTP treatment by oral gavage in corn oil at 50 mg/Kg and frozen sections through the substantia nigra were prepared 7 days following MPTP. Immunofluorescence images were collected using a 40× Zeiss PlanApochromat objective for tyrosine hydroxylase (green), 3-nitrotyrosine (red), and DAPI (blue; DNA/nuclear stain). […] DIM-C-pPhOCH3 prevented protein nitration in dopaminergic neurons in mice treated with MPTP.

[3] = system: astrocyte activation, NOS2 and NF-κB/GFP expression in striatum; test: Anti-inflammatory efficacy in transgenic NF-κB-GFP reporter mice treated with MPTP; format: in vivo, mice (C57B1/6 background); settings: 50 mg/Kg oral gavage in corn oil once per day for four days following MPTP; striatum 7 days following MPTP
Procedure: Transgenic NF-κB-GFP reporter mice (C57B1/6 background) were exposed to MPTP (2 injections of 15 mg/kg, 12 hours apart) in the presence and absence of DIM-C-pPhtBu and assessed for activation of astrocytes, expression of NOS2, and expression of GFP (representing NF-kB activity). DIM-C-pPhtBu was administered once per day for four days following MPTP treatment by oral gavage in corn oil at 50 mg/Kg and frozen sections through the striatum were prepared 7 days following MPTP. Immunofluorescent images were collected using a 40× Zeiss PlanApochromat objective for GFAP as marker for astrocytes (purple), NOS2 (red), green fluorescent protein (GFP; green), and DAPI (blue; DNA stain). Co-location of red and green channels is depicted in the image as yellow. […] This activated glial phenotype was inhibited by treatment with DIM-C-pPhtBu.

NF-κB = settings: proximal p65 enhancer element; cited from earlier work

In the case of `COc1ccc(C(c2c[nH]c3ccccc23)c2c[nH]c3ccccc23)cc1` [DIM-C-pPhOCH3, 1,1-bis(3′-indolyl)-1-(p-methoxyphenyl)methane], the “Protein nitration in primary astrocytes induced by MPTP and TNF-α/IFN-γ” value ([1]; FIG. 7(D), concentration not given) is reported as “prevents protein nitration” and the “Protein nitration (3-nitrotyrosine) in dopaminergic neurons” value [2] is reported as “completely suppressed”.

For `CC(C)(C)c1ccc(C(c2c[nH]c3ccccc23)c2c[nH]c3ccccc23)cc1` [DIM-C-pPhtBu, 1,1-bis(3′-indolyl)-1-(p-t-butylphenyl)methane], the “MPTP-induced activated glial phenotype (hypertrophic astrocytes expressing NOS2 and NF-κB/GFP)” value [3] was “inhibited” and the “MPTP-induced increase in 3-nitrotyrosine formation” value ([1]; 10 μM co-treatment, astrocytes, FIG. 3D) was “prevented”.

For `CN(CCOc1ccc(CC2SC(=O)NC2=O)cc1)c1ccccn1` (centres unmarked) [rosiglitazone, 5-((4-(2-(methyl-2-pyridinylamino)ethoxy)phenyl)methyl)-2,4-thiazolidinedione, reference compound], the “Effect on NF-κB in RAW macrophages” value (NF-κB) is listed as “antagonize NF-κB by stabilizing NCoR2”.
